According to patent publication US20070184017A1, “Anti-aging treatment using copper and zinc compositions” (priority 2006, published 2007):

Test system: wrinkling on face
Test: Gel composition applied to wrinkled face twice daily (Example 1)
Type: in vivo, human
Settings: person
Description: A person is suffering from wrinkling on their face. A gel composition suitable for treatment of skin containing an effective amount of copper-zinc malonate active ingredient is routinely applied to their face twice daily.

## copper-zinc malonate
  wrinkling on face: reduced or eliminated
